In patent publication US20170027902A1, “Use of a Composition Comprising a Flavonol, A Flavonoid, and a Fatty Acid in the Treatment of Oxidative Injuries Due to Mitochondrial Dysfunction” (priority 2014, published 2017):

Test system: primary mouse cortical cultures
Experiment: Confocal imaging of calcium transients and mitochondrial membrane potential
Assay type: cell-based
Description: Embryonic day 16 timed pregnant CD1 out-bred mice were obtained from Charles River Laboratories (Charles River; QC, Canada). Primary cortical neuron cultures were prepared from cerebral cortices of wild type (WT) CD1 mouse embryos as described previously, with the following modifications. Pregnant CD1 females were heavily anaesthetized with isoflurane vapor (Benson Medical Industries, Inc., Markham, ON) before being euthanized by decapitation. The embryonic day 16 (E16) fetuses were immediately removed from the sacrificed pregnant females by cesarean section and placed in ice-cold Hank's Balanced Salt Solution (HBSS) (GIBCO; Invitrogen, Amarillo, Calif.). The meninges were removed from the brains and cortices were isolated under a dissecting microscope. The cortices from each embryo were placed in individual wells of a 24-well plate (Corning; Lowell, Mass.), containing 1 ml of ice-cold PBS (GIBCO; […] Under sterile conditions, the tissue was briefly minced, transferred to 15 ml sterile conical tubes (Corning; Lowell, Mass.) and centrifuged at 350×g for 3 min at room temperature. The dissecting solution was discarded and the cortical neurons were then dissociated trituration with fire-polished glass pipettes followed by incubating in 1 ml of 0.1% trypsin solution (0.1% w/v trypsin (Invitrogen, Amarillo, Calif.) in PBS with 1 mM Mg^2+ and 13 mM glucose) at 37° C. for 15 min. The trypsinization was inhibited by the addition of 0.5 ml of trypsin inhibitor solution that also contained DNase I (0.06% w/v trypsin inhibitor (Invitrogen; Amarillo, Calif.) and 0.01% DNase I (Invitrogen; […] The tubes were mixed briefly and the cells were centrifuged at 350×g for 3 min at room temperature. The trypsin and inhibitor solutions were discarded and each cell pellet was suspended in 1 ml of cortical neuron plating medium (Neurobasal medium (Invitrogen, Amarillo, Calif.) with 10% fetal bovine serum (GIBCO; Invitrogen; Amarillo, Calif.), 2% B27 supplement, 1 mM L-glutamine, and 1% Gentamycin (Invitrogen; […] Cortical neurons were plated in 96-well plates (Corning; Lowell, Mass.) that were pre-coated with poly-D-lysine (PDL; Sigma-Aldrich; Oakville, ON) according to the procedure described by the manufacturer. Briefly, plates were coated immediately before use with 100 μg/ml PDL for 5-10 min (50 μl/well), washed three times with tissue-culture grade water and left to dry for 2 h before cells were introduced. Cortical neurons were plated at a concentration of 1×10^6 cells/ml (100 µl/well) and medium was completely changed the day after plating to serum-free cortical neuron medium (Neurobasal medium with 2% B27 supplement, 5 mM HEPES, 0.5 mM L-glutamine, and 20 μg/ml Gentamycin), which was replaced every 3 days in culture. Cultures were maintained in a humidified, 37° C. incubator with 5% CO2. Experiments were performed on the eighth day in vitro (DIV10). For measurements of mitochondrial membrane potential (ΔΨm), cells were loaded with 25 nM tetrannethylrhodamine methyl ester (TMRM) for 30 min at room temperature and the dye was present during the experiment. TMRM is used in the redistribution mode to assess ΔΨm with a reduction in TMRM fluorescence indicating mitochondrial depolarization. Neurons were loaded for 30 min at room temperature with X-rhod-1 AM (0.5 μM) and Fluo-3 AM (0.5 μM) (Molecular Probes, Invitrogen) prior to imaging in HEPES-buffered salt solution (HBSS) composed of (mM): 156 NaCl, 3 KCl, 2 MgSO4, 1.25 KH2PO4, 2 CaCl2, 10 glucose and 10 HEPES, pH adjusted to 7.35 with NaOH. Confocal images were obtained using a 510 CLSM (Zeiss, Thornwood, N.Y.) equipped with a META detection system and a […] oil-immersion objective. The 488 nm Argon laser line was used to excite fluo-3 fluorescence, which was measured using a bandpass filter from 505 to 550 nm. Illumination intensity was kept to a minimum (at 0.1-0.2% of laser output) to avoid phototoxicity and the pinhole was set to give an optical slice of 2 μm. […]

Row | SMILES | TMRM fluorescence (added after Q and thapsigargin) | [Ca2+]c (added after Q and thapsigargin) | [Ca2+]c oscillations stimulated by Q (5 μM, depletion of ER Ca2+ stores)
1 | N#CC(C#N)=NNc1ccc(OC(F)(F)F)cc1 [FCCP, carbonyl cyanide-4-(trifluoromethoxy)phenylhydrazone] | complete loss | sharp increase | –
2 | C/C=C(/C)C(=O)O[C@H]1C(C)=C2[C@H]([C@@H]1OC(=O)CCCCCCC)[C@@](C)(OC(C)=O)C[C@H](OC(=O)CCC)[C@@]1(O)[C@H]2OC(=O)[C@@]1(C)O [thapsigargin] | – | – | blocked
